How the values were obtained:
rat hippocampal neurons = assay: Photostick of a single neuron chosen by Optopatch firing pattern; format: cell-based; conditions: 15 μM, 407 nm light 2200 J/cm^2, ACCUTASE 6 min 37° C.
MDCK cells [1] = format: cell-based; conditions: 4 μM, 407 nm light 825 J/cm^2
MDCK cells [2] = assay: Cell entry by high magnification fluorescence imaging; format: cell-based, Canine; conditions: 4 μM, fluorescence localized to the cell membrane
MDCK cells [3] = assay: Photostick of MDCK cells (violet light crosslinking, ACCUTASE development); format: cell-based, Canine

CC[N+]1=C(/C=C/C=C2/N(CCCCCC(=O)NCCNC(=O)CCSSCCNC(=O)C(CCCCNC(=O)CCCCC3SCC4NC(=O)NC43)NC(=O)c3ccc(N=[N+]=N)cc3)c3ccc(S(=O)(=O)O)cc3C2(C)C)C(C)(C)c2cc(S(=O)(=O)O)ccc21 (stereo not drawn) [Cy3-SBED]
Retention of selected neuron after ACCUTASE (in words) (rat hippocampal neurons): the selected neuron remained
Cell doubling time post-photostick (MDCK cells [1]): 34 h
Entry into cells (intracellular fluorescence) (MDCK cells [2]): did not enter the cells
Cells in the dark region removed (MDCK cells [3]): 99.96%
Cells within the illuminated region retained (photostuck cells remained) (MDCK cells [3]): 98.7%
Non-photostuck cells remained (MDCK cells [3]): 0.04%
